Several values for one entry are separate records, joined by “and”; a condition that tells them apart may be missing. Equal values may be shown once. Inconclusive results and toxic doses are left out.

The assay concerns P388 leukemia ip, CD2F1 mice, survival T/C. In words: NCI In Vivo Anticancer Drug Screen. Data for tumor model P388 Leukemia (intraperitoneal) in CD2F1 (CDF1) mice. As to conditions: endpoint: median survival time, higher = longer survival. In short, it runs like this:
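Mice carrying the transplanted tumor received test compound or vehicle. Survival was recorded in each group, and the value is the treated-group measurement divided by that of the vehicle-treated control group.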

The mark [1] stands for this setting: dose: 100.0 mg/kg/injection, schedule: Q04DX003 (ip), vehicle: saline.
Where [2] appears, read: dose: 200.0 mg/kg/injection, schedule: Q04DX003 (ip), vehicle: saline.
Setting [3] is: dose: 400.0 mg/kg/injection, schedule: Q04DX003 (ip), vehicle: saline.
The mark [4] stands for this setting: dose: 12.5 mg/kg/injection, schedule: Q01DX009 (ip), vehicle: saline with Tween-80.
[5] abbreviates: dose: 25.0 mg/kg/injection, schedule: Q01DX009 (ip), vehicle: saline with Tween-80.
[6] abbreviates: dose: 100.0 mg/kg/injection, schedule: Q01DX009 (ip), vehicle: saline with Tween-80.
[7] abbreviates: dose: 60.0 mg/kg/injection, schedule: Q01DX005 (ip), vehicle: saline with Tween-80.
Setting [8] is: dose: 120.0 mg/kg/injection, schedule: Q01DX005 (ip), vehicle: saline with Tween-80.
[9] abbreviates: dose: 240.0 mg/kg/injection, schedule: Q01DX005 (ip), vehicle: saline with Tween-80.
Setting [10] is: dose: 50.0 mg/kg/injection, schedule: Q01DX009 (ip), vehicle: saline with Tween-80.
The mark [11] stands for this setting: dose: 100.0 mg/kg/injection, schedule: Q04DX003 (ip), vehicle: saline with Tween-80.
The mark [12] stands for this setting: dose: 50.0 mg/kg/injection, schedule: Q01DX009 (ip), vehicle: Klucel (hydroxypropylcellulose) (HPC).
Where [13] appears, read: dose: 100.0 mg/kg/injection, schedule: Q01DX009 (ip), vehicle: Klucel (hydroxypropylcellulose) (HPC).
Setting [14] is: dose: 200.0 mg/kg/injection, schedule: Q01DX009 (ip), vehicle: saline with Tween-80.

As to `CC(C)C12CC3=C(C(=O)C1O2)C1(C)CCC2=C(COC2=O)C1CC3` (stereo not drawn), the T/C was 102 % of control (dose: 3.75 mg/kg/injection, schedule: Q01DX005 (ip), vehicle: DMSO); 119 % of control (dose: 7.5 mg/kg/injection, schedule: Q01DX005 (ip), vehicle: DMSO); 123 % of control (dose: 15.0 mg/kg/injection, schedule: Q01DX005 (ip), vehicle: DMSO).

Consider `CNC(=S)N/N=C\C(C)=N/Nc1ccc(F)cc1`, for which the T/C under setting [1] is 99 % of control, the T/C under setting [2] is 99 % of control and the T/C under setting [3] was 94 % of control.

Take `NC(=S)C(Cl)(Cl)Cl`: the T/C (dose: 50.0 mg/kg/injection, schedule: Q01DX005 (ip), vehicle: saline + Tween-80 + alcohol) was 116 % of control; the T/C (dose: 100.0 mg/kg/injection, schedule: Q01DX005 (ip), vehicle: saline + Tween-80 + alcohol) was 119 % of control; the T/C (dose: 200.0 mg/kg/injection, schedule: Q01DX005 (ip), vehicle: saline + Tween-80 + alcohol) was 113 % of control.

In the case of `C=CC(=O)NCCSSCCNC(=O)C=C`, the T/C (dose: 6.25 mg/kg/injection, schedule: Q01DX009 (ip), vehicle: saline with Tween-80) is 108 % of control; the T/C under setting [4] was 99 % of control; the T/C under setting [5] is 93 % of control; the T/C under setting [6] is 98 % of control.

As to `C=CC(C)(C)[N+](C)(C)C`, the T/C runs as follows: (dose: 12.5 mg/kg/injection, schedule: Q01DX009 (ip), vehicle: saline) 99 % of control; (dose: 25.0 mg/kg/injection, schedule: Q01DX009 (ip), vehicle: saline) 102 % of control.

`Cc1ccc(NC(=O)CCCC(=O)C(C#N)c2c(Cl)cccc2Cl)cc1C` (stereo not drawn): the T/C is 114 % of control under setting [7], 108 % of control under setting [8] and 103 % of control under setting [9].

For `CCOC(=O)C(SC#N)[Se]c1ccccc1` (stereo not drawn), the T/C was 106 % of control (dose: 50.0 mg/kg/injection, schedule: Q01DX005 (ip), vehicle: saline with Tween-80) and 109 % of control (dose: 100.0 mg/kg/injection, schedule: Q01DX005 (ip), vehicle: saline with Tween-80).

For `CC(=O)Nc1cc(Cl)cc2c1-c1ccc(Cl)cc1C2=O`, the T/C by setting is: (dose: 50.0 mg/kg/injection, schedule: Q01DX005 (ip), vehicle: Klucel (hydroxypropylcellulose) (HPC)) 88 % of control; (dose: 100.0 mg/kg/injection, schedule: Q01DX005 (ip), vehicle: Klucel (hydroxypropylcellulose) (HPC)) 94 % of control.

Turning to `C#CCOc1ccc(C)cc1`, the T/C was 108 % of control under setting [5], 108 % of control under setting [10] and 113 % of control under setting [6].

Take `C/C=C/c1cc2c(c(=O)o1)C(=O)[C@@H](O)[C@H](C)O2`: the T/C under setting [4] is 101 % of control; the T/C under setting [5] is 101 % of control; the T/C (dose: 44.0 mg/kg/injection, schedule: Q01DX009 (ip), vehicle: saline with Tween-80) was 112 % of control; the T/C under setting [10] is 110 % of control; the T/C (dose: 66.0 mg/kg/injection, schedule: Q01DX009 (ip), vehicle: saline with Tween-80) is 121 % of control.

For `Cc1[nH]c(N)nc(=S)c1CCCNc1ccc(C(=O)NC(CCC(=O)O)C(=O)O)cc1` (stereo not drawn), the T/C reads like this: (dose: 6.25 mg/kg/injection, schedule: Q01DX005 (ip), vehicle: Klucel (hydroxypropylcellulose) (HPC)) 101 % of control; (dose: 12.5 mg/kg/injection, schedule: Q01DX005 (ip), vehicle: Klucel (hydroxypropylcellulose) (HPC)) 99 % of control; (dose: 25.0 mg/kg/injection, schedule: Q01DX005 (ip), vehicle: Klucel (hydroxypropylcellulose) (HPC)) 98 % of control.

As to `COc1cc([C@@H]2c3cc4c(cc3[C@H](OC(C)=O)[C@H]3COC(=O)[C@@H]23)OCO4)cc(OC)c1OC`, the T/C runs as follows: under setting [5], 118 % of control; (dose: 29.3 mg/kg/injection, schedule: Q04DX003 (ip), vehicle: saline with Tween-80) 88 % of control; under setting [10], 150 % of control; (dose: 66.0 mg/kg/injection, schedule: Q04DX003 (ip), vehicle: saline with Tween-80) 100 % of control; under setting [11], 115 % of control.

Consider `c1ccc2c3c([nH]c2c1)CCCC3`, for which the T/C runs as follows: under setting [12], 102 % of control; under setting [13], 103 % of control; (dose: 200.0 mg/kg/injection, schedule: Q01DX009 (ip), vehicle: Klucel (hydroxypropylcellulose) (HPC)) 111 % of control.

As to `O=C(Nc1cccc2c(OC(=O)C(Cl)Cl)c(N=Nc3ccc(S(=O)(=O)Nc4nccs4)cc3)cc(N=Nc3ccc(S(=O)(=O)Nc4nccs4)cc3)c12)C(Cl)Cl`, the T/C was 109 % of control and 100 % of control and 104 % of control under setting [10]; 108 % of control and 103 % of control and 106 % of control under setting [6]; 107 % of control under setting [14].

On to `OC(/C=C/CC(O)(C(F)(F)F)C(F)(F)F)(C(F)(F)F)C(F)(F)F`, for which the T/C runs as follows: (dose: 50.0 mg/kg/injection, schedule: Q01DX009 (ip), vehicle: saline) 100 % of control; (dose: 100.0 mg/kg/injection, schedule: Q01DX009 (ip), vehicle: saline) 98 % of control.

`CCCCCCN(CCCCCC)P(=O)(N1CC1C)N1CC1C` (stereo not drawn): the T/C was 122 % of control under setting [4]; 95 % of control (dose: 12.5 mg/kg/injection, schedule: Q04DX003 (ip), vehicle: saline); 118 % of control under setting [5]; 95 % of control (dose: 25.0 mg/kg/injection, schedule: Q04DX003 (ip), vehicle: saline); 95 % of control (dose: 50.0 mg/kg/injection, schedule: Q04DX003 (ip), vehicle: saline).

In the case of `CCOC(=O)NC(NC(=O)OCC)c1ccccc1`, the T/C is 100 % of control under setting [1], 98 % of control under setting [2] and 92 % of control under setting [3].

For `COc1ccc(C(c2cc3c(cc2O)OCO3)N2CCOCC2)c(OC)c1OC` (stereo not drawn), the T/C runs as follows: under setting [7], 119 % of control; under setting [8], 109 % of control; under setting [9], 115 % of control.

Take `N#CC(C#N)=C(C#N)C#N`: the T/C under setting [11] is 103 % of control and the T/C (dose: 200.0 mg/kg/injection, schedule: Q04DX003 (ip), vehicle: saline with Tween-80) was 103 % of control.

With `CC(=O)N(O)c1ccc(S(N)(=O)=O)cc1`, the T/C was 113 % of control under setting [10], 100 % of control under setting [6] and 98 % of control under setting [14].

Take `NC1=NC2(CS1)CSC(N)=N2`: the T/C is, setting by setting: under setting [10], 94 % of control; under setting [6], 113 % of control; under setting [14], 90 % of control.

For the molecule `CN1CCN(CCCN2CC(=O)N3Cc4ccccc4CN3C(=O)C2)CC1`, the T/C is, setting by setting: (dose: 50.0 mg/kg/injection, schedule: Q01DX005 (ip), vehicle: saline) 102 % of control; (dose: 100.0 mg/kg/injection, schedule: Q01DX005 (ip), vehicle: saline) 102 % of control; (dose: 200.0 mg/kg/injection, schedule: Q01DX005 (ip), vehicle: saline) 103 % of control.

Take `N#CNc1nc2ccccc2[nH]1`: the T/C is 100 % of control (dose: 6.25 mg/kg/injection, schedule: Q01DX009 (ip), vehicle: Klucel (hydroxypropylcellulose) (HPC)); 103 % of control (dose: 12.5 mg/kg/injection, schedule: Q01DX009 (ip), vehicle: Klucel (hydroxypropylcellulose) (HPC)); 108 % of control (dose: 25.0 mg/kg/injection, schedule: Q01DX009 (ip), vehicle: Klucel (hydroxypropylcellulose) (HPC)); 101 % of control under setting [12]; 100 % of control under setting [13].

Regarding `CC(=O)OC1CCC2(C)C3CCC4(C)C(=CCC5(C(=O)O)CCC(C)(C)CC45)C3(C)CCC2C1(C)C` (stereo not drawn), the T/C was 97 % of control (dose: 0.25 mg/kg/injection, schedule: Q01DX009 (ip), vehicle: saline + Tween-80 + alcohol); 101 % of control (dose: 0.5 mg/kg/injection, schedule: Q01DX009 (ip), vehicle: saline + Tween-80 + alcohol); 106 % of control (dose: 1.0 mg/kg/injection, schedule: Q01DX009 (ip), vehicle: saline + Tween-80 + alcohol); 97 % of control (dose: 2.0 mg/kg/injection, schedule: Q01DX009 (ip), vehicle: saline + Tween-80 + alcohol); 106 % of control (dose: 4.0 mg/kg/injection, schedule: Q01DX009 (ip), vehicle: saline + Tween-80 + alcohol).

These data come from PubChem BioAssay AID330 (DTP/NCI, 2004).
